Columns and labels:
siRNA [1] = test: Isothermal titration calorimetry, titrating siRNA with GL1; type: binding
Description: The isothermal titration calorimetry experiments were conducted using a Nano-ITC calorimeter (TA Instruments). A 500 μM GL1 peptide solution and a 10 μM siRNA solution were both prepared in RNase-free water. All of the samples were degassed in a degassing station (TA Instruments) prior to the experiments. RNase-free water was placed in the ITC reference cell. For each titration, 2 μl of the peptide in a pipette rotating at 250 rpm was injected into the siRNA solution in the sample cell of the calorimeter, which was equilibrated to 25°C, with an interval of 300 s between injections. The heat of dilution was measured by titrating the GL1 solution into RNase-free water and was later subtracted from the sample measurement. The data were analyzed using NanoAnalyze software v.3.1.2.
The ability of GL1 to interact with siRNA was investigated by gel electrophoresis. Binding between peptide and siRNA prevented RNA from being stained by EtBr. […] At a slightly higher molar ratio 15/1, no free siNRA was detected on the agarose gel. […] This direct binding between cationic peptide and anionic siRNA would be initiated via electrostatic interactions. The formation of GL1-siRNA complexes and the thermodynamic parameters associated with the binding between peptide and siRNA was further investigated using isothermal titration calorimetry by titrating the siRNA with GL1. The heat exchange during the titration of siRNA by GL1 (in RNase-free water) was detected by the machine and output as raw data. By fitting the raw data (upper panel of Figure 2) to a single-site model (lower panel of Figure 2), the thermodynamic parameters during the interaction were obtained and listed in Table 1.
Figure 2 Calorimetric titration of siRNA with GL1 at 25°C in RNasefree water at pH 6. a Corrected thermogram of calorimetric titration of siRNA with GL1. b Binding analysis of siRNA with GL1 by fitting the raw data with an independent model. GL1 concentration was 500 μM and siRNA concentration was 10 μM.

eGFP siRNA = test: Agarose gel-shift assay of peptide-siRNA complex formation; type: binding; conditions: 1.2% agarose gel, 300 ng eGFP siRNA
Description: The GL1-siRNA complexes in RNase-free water were made with 300 ng of eGFP siRNA. The samples of siRNA alone and GL1-siRNA complexes at molar ratios (peptide/siRNA) ranging from 1/1 to 80/1 were electrophoresed on a 1.2% wt/vol agarose gel in 1× TBE at 55 V for 1 h. The ethidium bromide-stained siRNA was visualized on an ultraviolet transilluminator with a camera.
Figure 1 Binding ability of siRNA to GL1 studied by agarose gel-shift assay The formed GL1-siRNA complexes, stained with ethidium bromide, were investigated by electrophoresis on agarose gel (1.2% wt/vol). siRNAs, targeting eGFP genes, were complexed with GL1 at a series of molar ratios from 1/1 to 80/1. Lane 1 was siRNA control, and lanes 2–8 indicated correlated molar ratios. The amount of siRNA was 300 ng.

CHO-K1 cells [2] = test: FACS cellular uptake of Cy3-labeled GAPDH siRNA; type: cell-based, Chinese hamster; conditions: Cy3-labeled GAPDH siRNA 100 nM, 4 h
Description: The uptake of Cy3-labeled siRNA into the CHO-K1 cells was quantified with a BD FACSVantage SE Cell Sorter flow cytometry (BD Biosciences, United States). CHO-K1 cells were plated at a density of 50,000 cells per well and incubated for 24 h in a 24-well flat-bottom plate. The medium was replaced with GL1-siRNA complexes and control samples in OPTI-MEM (Invitrogen) or F12-K supplemented with 10% FBS with a siRNA concentration of 100 nM. After 4 h of incubation, the cells were rinsed with phosphate buffered saline (PBS) and washed with heparin (10 U/ml). After, trypsin–EDTA was added to detach the cells from the plate. The cells were re-suspended in 4% paraformaldehyde (PFA) and ready for quantitative analysis.
Figure 5 a Fluorescence microscope image of GL1-siRNA complexes at molar ratio 40/1 (magnification 40×). The red fluorescence indicated Cy3 labeled siRNA, blue fluorescence represented DAPI stained nuclei. […] Non-treated sample was negative control; Lipo-siRNA complexes were positive control. Cy3 labeled GAPDH siRNA was used here. siRNA concentration was 100 nM in both experiments. NT non-treated, MR peptide/siRNA molar ratio, Lipo Lipofectamine 2000. Results are expressed as mean ± standard deviation (n = 3).

CHO-K1 cells [3] = test: MTT cytotoxicity assay; type: cell-based, Chinese hamster; conditions: siRNA 50 nM, 4 h Opti-MEM then 48 h, molar ratio 10/1
Description: The cytotoxicity of peptide-siRNA complexes was determined by the MTT assay. In brief, cells were seeded at 5,000 cells/well in clear, flat-bottomed, 96-well plates (Costar) 24 h before treatment. After being washed, 100 μl of Opti-MEM that contained peptide-siRNA complexes at different molar ratios was added to the wells and incubated for 4 h. Thereafter, 50 μl of 30% serum containing medium was added, and the cytotoxicity of the relevant reagents was determined by the MTT assay after 48 h. The absorbance at 570 nm was read on a plate reader (FLUOstar OPTIMA, BMG, Germany). The background absorbance of the multiwell plates at 690 nm was determined and subtracted from the 570 nm measurement. The results obtained from triplicate wells were averaged and normalized to the value obtained from the non-treated cells.
Figure 7 Cell viability results of CHO-K1 cells treated with naked Lipofectamine 2000 or GL1, and the complexes with siRNA (50 nM) at different molar ratios. NT non-treated, MR peptide/siRNA molar ratio, Lipo Lipofectamine 2000. Results are expressed as mean ± standard deviation (n = 3). *P value < 0.05, the cell viability after GL1 treatment is statistically significant than that after Lipo treatment.

siRNA [4] = conditions: cited from earlier work
Text: Here, an amphipathic, cationic peptide GL1 was designed and investigated. Structurally, GL1 has dispersed cationic amino acids along the sequence, which differs from the arginine rich peptide R9, R9-hLF, and Tat. The peptide MPG and MPG-like peptides consist of a hydrophobic domain and a hydrophilic domain which contributes to their amphipathic property; while PF6 and PF14 incorporated a stearyl moiety in their sequences to improve amphiphilicity. However, peptide GL1 has hydrophilic and hydrophobic amino acids dispersed along the sequence, which leads to its amphipathicity ...

GL1 peptide = molecular target: T1, GL1 peptide (synthetic (designed)); test: EMSA (agarose gel shift, EtBr); peptide/siRNA molar ratios 1/1 to 80/1; no free siRNA at 15/1, strongly reduced at 10/1; 300 ng siRNA; ITC: RNase-free water, pH 6, 25 C, 500 uM GL1 into 10 uM siRNA; gel shift: 1.2% agarose, EtBr, 20 min incubation, buffer not given; conditions: tags: N-terminal acetyl, C-terminal amide
T1 chain: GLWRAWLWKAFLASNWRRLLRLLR

[5] = ITC, 500 μM GL1 titrated into 10 μM siRNA, RNase-free water pH 6, 25°C

Ac-GLWRAWLWKAFLASNWRRLLRLLR-NH2 [GL1]
n (molar stoichiometry, mol GL1 per mol siRNA) (siRNA [1]; [5]): 7.16 | ΔH (enthalpy) (siRNA [1]; [5]): -4.472 kcal/mol | ΔS (siRNA [1]; [5]): 64.56 J/(mol K) | Kd (siRNA [1]; ITC, 500 μM GL1 titrated into 10 μM siRNA, RNase-free water pH 6, 25°C, read-out: Kd (dissociation constant)): 224 nM | ΔG (siRNA [1]; calculated with ΔG = ΔH − TΔS, ITC at 25°C): -9.068 kcal/mol | minimal peptide/siRNA molar ratio for siRNA delivery / complex formation (eGFP siRNA): around 10/1 | peptide/siRNA molar ratio at which no free siRNA is detected (all free siRNA encapsulated) (eGFP siRNA; ethidium bromide, molar ratios 1/1 to 80/1): 15/1 | cellular uptake of siRNA (CHO-K1 cells [2]; F12-K with 10% FBS, molar ratio 20/1, mean n = 3): 75% | cellular uptake of siRNA (CHO-K1 cells [2]; F12-K with 10% FBS, molar ratio 40/1, mean n = 3): 84% | cellular uptake of siRNA (CHO-K1 cells [2]; OPTI-MEM without serum, molar ratio 20/1, mean n = 3): 95% | cellular uptake of siRNA (CHO-K1 cells [2]; OPTI-MEM without serum, molar ratio 40/1, mean n = 3): 95% | cellular uptake of siRNA (CHO-K1 cells [2]; in the presence of serum, molar ratio not stated at the place, mean n = 3): ~ 84% | cellular uptake of siRNA (CHO-K1 cells [2]; serum free, molar ratio not stated at the place, mean n = 3): ~ 95% | toxicity (CHO-K1 cells [3]): did not cause toxicity

TP10
molar ratio required to encapsulate all the free siRNA (siRNA [4]): 50/1

B1: eGFP siRNA (dsRNA)
RNA 1: GACGUAAACGGCCACAAGUUC
RNA 2: ACUUGUGGCCGUUUACGUCGC
binding result (GL1 peptide): binds
